Active and inactive are the calls of the source. The rule behind the calls is not given here.
Tests used:
[1] = Induction of apoptosis in human KYSE-150 cells assessed as early apoptotic cells at 37 nM incubated for 72 hrs by Annexin V-PE/7-AAD staining based flow cytometry (reference value: 5.27 %); format: functional
[2] = target: von Hippel-Lindau disease tumor suppressor/Lysine-specific demethylase 4C (Homo sapiens, UniProt Q9H3R0+P40337); assay: PROTAC activity at VHL/KDM4C in human KYSE-150 cells assessed as induction of KDM4C degradation upto 1000 nM by Western blot analysis; format: cell-based; settings: KYSE-150 cell line
Chain of von Hippel-Lindau disease tumor suppressor/Lysine-specific demethylase 4C (P40337 whole entry, looked up): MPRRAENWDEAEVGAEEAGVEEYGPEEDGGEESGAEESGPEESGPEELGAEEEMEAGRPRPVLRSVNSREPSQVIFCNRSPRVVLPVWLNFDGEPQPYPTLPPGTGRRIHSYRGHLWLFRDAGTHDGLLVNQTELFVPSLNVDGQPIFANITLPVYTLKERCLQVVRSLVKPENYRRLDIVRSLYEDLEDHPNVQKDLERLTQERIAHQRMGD
Chain of von Hippel-Lindau disease tumor suppressor/Lysine-specific demethylase 4C (Q9H3R0 whole entry, looked up): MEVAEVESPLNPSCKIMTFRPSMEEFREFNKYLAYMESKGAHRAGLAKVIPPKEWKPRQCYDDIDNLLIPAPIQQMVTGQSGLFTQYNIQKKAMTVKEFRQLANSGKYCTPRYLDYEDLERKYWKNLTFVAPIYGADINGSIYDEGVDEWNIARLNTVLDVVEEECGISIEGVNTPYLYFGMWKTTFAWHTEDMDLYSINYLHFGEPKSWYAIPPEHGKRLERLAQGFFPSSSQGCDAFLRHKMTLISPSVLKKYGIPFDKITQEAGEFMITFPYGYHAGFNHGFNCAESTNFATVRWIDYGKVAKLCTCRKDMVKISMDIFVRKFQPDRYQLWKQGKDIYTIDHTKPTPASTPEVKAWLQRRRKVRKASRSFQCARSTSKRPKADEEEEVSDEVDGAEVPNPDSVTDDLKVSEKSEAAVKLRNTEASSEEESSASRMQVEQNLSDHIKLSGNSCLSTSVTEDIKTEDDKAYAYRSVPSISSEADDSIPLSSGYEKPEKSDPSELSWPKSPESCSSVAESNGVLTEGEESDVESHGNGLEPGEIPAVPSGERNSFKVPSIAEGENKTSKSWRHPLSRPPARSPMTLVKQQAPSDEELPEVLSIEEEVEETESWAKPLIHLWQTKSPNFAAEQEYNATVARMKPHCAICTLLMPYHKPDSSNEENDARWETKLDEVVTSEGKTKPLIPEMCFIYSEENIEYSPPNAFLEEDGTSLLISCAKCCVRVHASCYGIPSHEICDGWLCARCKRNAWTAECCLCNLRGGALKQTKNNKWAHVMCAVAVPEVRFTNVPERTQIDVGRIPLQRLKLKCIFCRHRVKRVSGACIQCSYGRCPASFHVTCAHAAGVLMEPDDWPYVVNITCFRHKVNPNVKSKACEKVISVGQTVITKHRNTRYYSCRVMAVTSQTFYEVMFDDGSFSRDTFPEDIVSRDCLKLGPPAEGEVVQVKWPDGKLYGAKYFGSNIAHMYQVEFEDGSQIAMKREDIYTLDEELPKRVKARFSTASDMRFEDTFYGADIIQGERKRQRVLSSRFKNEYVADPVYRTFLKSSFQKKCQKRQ

[3] = Induction of cell cycle arrest in human KYSE-150 cells assessed as accumulation of cells at G2/M phase at 1000 nM incubated for 24 hrs by flow cytometry (reference value: 21.64 %); format: functional
[4] = Induction of apoptosis in human KYSE-150 cells assessed as necrotic cells at 12.3 nM incubated for 72 hrs by Annexin V-PE/7-AAD staining based flow cytometry (reference value: 4.28 %); format: functional
[5] = Induction of cell cycle arrest in human KYSE-150 cells assessed as accumulation of cells at G0/G1 phase at 37 nM incubated for 24 hrs by flow cytometry (reference value: 65.08 %); format: functional
[6] = target: von Hippel-Lindau disease tumor suppressor/Lysine-specific demethylase 4B (Homo sapiens, UniProt P40337+O94953); assay: PROTAC activity at VHL/KDM4B in human KYSE-150 cells assessed as induction of KDM4B degradation upto 1000 nM by Western blot analysis; format: cell-based; settings: KYSE-150 cell line
Chain of von Hippel-Lindau disease tumor suppressor/Lysine-specific demethylase 4B (O94953 whole entry, looked up): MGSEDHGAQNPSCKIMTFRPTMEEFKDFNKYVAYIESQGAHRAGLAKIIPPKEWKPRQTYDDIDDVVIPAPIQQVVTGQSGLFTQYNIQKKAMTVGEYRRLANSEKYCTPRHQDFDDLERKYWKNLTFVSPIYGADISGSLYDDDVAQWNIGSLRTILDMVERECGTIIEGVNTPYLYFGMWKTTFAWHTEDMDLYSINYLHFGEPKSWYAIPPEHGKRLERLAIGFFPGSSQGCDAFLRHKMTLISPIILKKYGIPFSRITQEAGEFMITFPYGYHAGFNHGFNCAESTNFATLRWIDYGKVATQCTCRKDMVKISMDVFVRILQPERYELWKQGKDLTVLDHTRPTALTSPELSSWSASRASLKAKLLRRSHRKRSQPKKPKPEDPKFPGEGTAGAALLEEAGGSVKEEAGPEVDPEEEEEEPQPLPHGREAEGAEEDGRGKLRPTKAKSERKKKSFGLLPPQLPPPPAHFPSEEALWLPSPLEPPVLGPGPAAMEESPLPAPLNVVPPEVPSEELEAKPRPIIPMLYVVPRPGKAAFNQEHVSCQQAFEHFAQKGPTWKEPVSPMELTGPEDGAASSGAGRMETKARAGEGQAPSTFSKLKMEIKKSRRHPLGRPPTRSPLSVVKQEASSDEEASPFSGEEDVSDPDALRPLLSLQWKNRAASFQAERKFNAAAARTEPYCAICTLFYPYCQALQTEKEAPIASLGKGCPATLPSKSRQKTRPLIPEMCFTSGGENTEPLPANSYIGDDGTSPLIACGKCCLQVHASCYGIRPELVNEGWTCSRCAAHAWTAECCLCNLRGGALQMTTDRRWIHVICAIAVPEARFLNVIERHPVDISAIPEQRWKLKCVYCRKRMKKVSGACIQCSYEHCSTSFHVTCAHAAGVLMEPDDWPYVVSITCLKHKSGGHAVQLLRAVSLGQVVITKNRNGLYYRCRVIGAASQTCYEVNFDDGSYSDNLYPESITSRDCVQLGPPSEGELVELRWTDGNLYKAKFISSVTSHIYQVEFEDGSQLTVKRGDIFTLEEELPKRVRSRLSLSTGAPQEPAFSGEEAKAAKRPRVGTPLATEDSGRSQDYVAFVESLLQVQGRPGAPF
Chain of von Hippel-Lindau disease tumor suppressor/Lysine-specific demethylase 4B (P40337 whole entry, looked up): as the sequence (P40337 whole entry, looked up) above

[7] = Induction of apoptosis in human KYSE-150 cells assessed as late apoptotic cells at 1000 nM incubated for 72 hrs by Annexin V-PE/7-AAD staining based flow cytometry (reference value: 5.98 %); format: functional
[8] = Induction of cell cycle arrest in human KYSE-150 cells assessed as accumulation of cells at G2/M phase at 12.3 nM incubated for 24 hrs by flow cytometry (reference value: 21.64 %); format: functional
[9] = Induction of apoptosis in human KYSE-150 cells assessed as viable cells at 111.1 nM incubated for 72 hrs by Annexin V-PE/7-AAD staining based flow cytometry (reference value: 84.47 %); format: functional; settings: read-out: Activity
[10] = Induction of apoptosis in human KYSE-150 cells assessed as late apoptotic cells at 111.1 nM incubated for 72 hrs by Annexin V-PE/7-AAD staining based flow cytometry (reference value: 5.98 %); format: functional
[11] = target: T1, von Hippel-Lindau disease tumor suppressor/Lysine-specific demethylase 4A (Homo sapiens, UniProt O75164+P40337); assay: PROTAC activity at VHL/KDM4A in human KYSE-150 cells assessed as induction of KDM4A degradation at 50 nM incubated for 24 hrs in presence of bortezomib by Western blot analysis; format: cell-based; settings: KYSE-150 cell line
T1 sequence (O75164 2-1064 limits assumed): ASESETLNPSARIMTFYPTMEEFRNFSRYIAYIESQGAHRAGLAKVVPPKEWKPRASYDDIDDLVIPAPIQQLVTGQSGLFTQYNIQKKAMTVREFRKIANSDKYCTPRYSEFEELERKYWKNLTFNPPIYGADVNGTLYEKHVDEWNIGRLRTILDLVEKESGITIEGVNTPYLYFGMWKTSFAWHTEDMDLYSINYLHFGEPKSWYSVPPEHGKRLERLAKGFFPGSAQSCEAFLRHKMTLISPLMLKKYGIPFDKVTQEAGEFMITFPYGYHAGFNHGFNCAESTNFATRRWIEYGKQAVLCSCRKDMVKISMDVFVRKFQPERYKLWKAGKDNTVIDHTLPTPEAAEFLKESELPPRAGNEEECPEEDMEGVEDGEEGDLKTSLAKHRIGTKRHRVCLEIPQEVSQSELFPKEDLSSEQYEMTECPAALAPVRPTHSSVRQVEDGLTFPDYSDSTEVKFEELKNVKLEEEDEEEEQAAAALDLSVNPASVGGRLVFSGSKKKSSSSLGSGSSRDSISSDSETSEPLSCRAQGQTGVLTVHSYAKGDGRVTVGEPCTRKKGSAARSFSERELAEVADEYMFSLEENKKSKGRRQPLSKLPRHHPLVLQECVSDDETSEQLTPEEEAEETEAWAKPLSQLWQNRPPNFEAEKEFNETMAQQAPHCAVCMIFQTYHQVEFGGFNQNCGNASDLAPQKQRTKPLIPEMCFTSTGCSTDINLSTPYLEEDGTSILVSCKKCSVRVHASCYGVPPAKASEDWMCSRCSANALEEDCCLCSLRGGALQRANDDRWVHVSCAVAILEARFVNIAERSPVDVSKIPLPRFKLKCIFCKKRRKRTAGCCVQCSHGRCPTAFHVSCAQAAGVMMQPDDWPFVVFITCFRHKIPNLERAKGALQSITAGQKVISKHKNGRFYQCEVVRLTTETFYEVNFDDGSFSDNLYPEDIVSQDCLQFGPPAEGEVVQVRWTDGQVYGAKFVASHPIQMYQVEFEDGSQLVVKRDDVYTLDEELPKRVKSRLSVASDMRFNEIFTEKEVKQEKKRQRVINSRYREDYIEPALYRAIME
T1 sequence (P40337 whole entry partner): as the sequence (P40337 whole entry, looked up) above

[12] = Induction of cell cycle arrest in human KYSE-150 cells assessed as accumulation of cells at G0/G1 phase at 12.3 nM incubated for 24 hrs by flow cytometry (reference value: 65.08 %); format: functional
[13] = Induction of apoptosis in human KYSE-150 cells assessed as necrotic cells at 1000 nM incubated for 72 hrs by Annexin V-PE/7-AAD staining based flow cytometry (reference value: 4.28 %); format: functional
[14] = Induction of apoptosis in human KYSE-150 cells assessed as viable cells at 1000 nM incubated for 72 hrs by Annexin V-PE/7-AAD staining based flow cytometry (reference value: 84.47 %); format: functional; settings: read-out: Activity
[15] = Induction of apoptosis in human KYSE-150 cells assessed as late apoptotic cells at 12.3 nM incubated for 72 hrs by Annexin V-PE/7-AAD staining based flow cytometry (reference value: 5.98 %); format: functional
[16] = Induction of cell cycle arrest in human KYSE-150 cells assessed as accumulation of cells at S pahse at 12.3 nM incubated for 24 hrs by flow cytometry (reference value: 13.15 %); format: functional
[17] = Induction of apoptosis in human KYSE-150 cells assessed as late apoptotic cells at 333.3 nM incubated for 72 hrs by Annexin V-PE/7-AAD staining based flow cytometry (reference value: 5.98 %); format: functional
[18] = target: T1, von Hippel-Lindau disease tumor suppressor/Lysine-specific demethylase 4A; assay: PROTAC activity at VHL/KDM4A in human KYSE-150 cells assessed as increase in KDM4A ubiquitination at 50 nM incubated for 24 hrs by Western blot analysis; format: cell-based; settings: KYSE-150 cell line
[19] = Induction of apoptosis in human KYSE-150 cells assessed as necrotic cells at 111.1 nM incubated for 72 hrs by Annexin V-PE/7-AAD staining based flow cytometry (reference value: 4.28 %); format: functional
[20] = Induction of apoptosis in human KYSE-150 cells assessed as necrotic cells at 37 nM incubated for 72 hrs by Annexin V-PE/7-AAD staining based flow cytometry (reference value: 4.28 %); format: functional
[21] = target: T1, von Hippel-Lindau disease tumor suppressor/Lysine-specific demethylase 4A; assay: PROTAC activity at VHL/KDM4A in human KYSE-150 cells assessed as induction of KDM4A degradation at 1 uM incubated for 12 hrs by Western blot analysis relative to control; format: cell-based; settings: KYSE-150 cell line
[22] = Induction of cell cycle arrest in human KYSE-150 cells assessed as accumulation of cells at G0/G1 phase at 111.1 nM incubated for 24 hrs by flow cytometry (reference value: 65.08 %); format: functional
[23] = Induction of apoptosis in human KYSE-150 cells assessed as viable cells at 12.3 nM incubated for 72 hrs by Annexin V-PE/7-AAD staining based flow cytometry (reference value: 84.47 %); format: functional; settings: read-out: Activity
[24] = Induction of cell cycle arrest in human KYSE-150 cells assessed as accumulation of cells at S pahse at 37 nM incubated for 24 hrs by flow cytometry (reference value: 13.15 %); format: functional
[25] = Induction of cell cycle arrest in human KYSE-150 cells assessed as accumulation of cells at G2/M phase at 333.3 nM incubated for 24 hrs by flow cytometry (reference value: 21.64 %); format: functional
[26] = target: T1, von Hippel-Lindau disease tumor suppressor/Lysine-specific demethylase 4A; assay: PROTAC activity at VHL/KDM4A in human KYSE-150 cells assessed as induction of KDM4A degradation upto 1000 nM by Western blot analysis; format: cell-based; settings: KYSE-150 cell line
[27] = target: von Hippel-Lindau disease tumor suppressor/Lysine-specific demethylase 4D (Homo sapiens, UniProt Q6B0I6+P40337); assay: PROTAC activity at VHL/KDM4D in human KYSE-150 cells assessed as induction of KDM4D degradation measured after 24 hrs by Western blot analysis; format: cell-based; settings: kyse-150 cell line
Chain of von Hippel-Lindau disease tumor suppressor/Lysine-specific demethylase 4D (Q6B0I6 whole entry): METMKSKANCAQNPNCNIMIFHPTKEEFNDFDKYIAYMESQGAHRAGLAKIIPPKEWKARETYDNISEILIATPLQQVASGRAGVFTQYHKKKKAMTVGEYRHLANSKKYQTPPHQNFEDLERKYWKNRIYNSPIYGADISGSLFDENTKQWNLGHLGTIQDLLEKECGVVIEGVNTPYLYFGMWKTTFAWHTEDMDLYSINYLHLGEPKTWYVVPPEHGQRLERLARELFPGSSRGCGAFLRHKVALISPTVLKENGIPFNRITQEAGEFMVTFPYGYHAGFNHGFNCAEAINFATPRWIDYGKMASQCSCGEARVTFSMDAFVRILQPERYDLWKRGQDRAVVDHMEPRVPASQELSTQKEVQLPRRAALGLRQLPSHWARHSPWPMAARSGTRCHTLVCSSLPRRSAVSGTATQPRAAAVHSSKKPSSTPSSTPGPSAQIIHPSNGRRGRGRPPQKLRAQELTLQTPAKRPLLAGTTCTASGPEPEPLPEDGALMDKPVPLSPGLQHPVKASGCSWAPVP
Chain of von Hippel-Lindau disease tumor suppressor/Lysine-specific demethylase 4D (P40337 whole entry): as the sequence (P40337 whole entry, looked up) above

[28] = Induction of apoptosis in human KYSE-150 cells assessed as viable cells at 333.3 nM incubated for 72 hrs by Annexin V-PE/7-AAD staining based flow cytometry (reference value: 84.47 %); format: functional; settings: read-out: Activity
[29] = Induction of cell cycle arrest in human KYSE-150 cells assessed as accumulation of cells at G2/M phase at 111.1 nM incubated for 24 hrs by flow cytometry (reference value: 21.64 %); format: functional
[30] = target: T1, von Hippel-Lindau disease tumor suppressor/Lysine-specific demethylase 4A; assay: PROTAC activity at VHL/KDM4A in human KYSE-150 cells assessed as induction of KDM4A degradation upto 1000 nM measured after 24 hrs by Western blot analysis relative to control; format: cell-based; settings: KYSE-150 cell line

Cc1ncsc1-c1ccc([C@H](C)NC(=O)[C@@H]2C[C@@H](O)CN2C(=O)[C@@H](NC(=O)CCCCCCCCCOc2ccc(N(C)c3ccc4c(c3)OCC[C@H]4CNc3cnccc3C(=O)O)cc2)C(C)(C)C)cc1
Activity [1]: 18.22%
Activity [2]: Time-dependent-effect
Activity [3]: 12.05%
Activity [4]: 6.02%
Activity [5]: 71.68%
Activity [6]: Time-dependent-effect
Activity [7]: 47.86%
Activity [8]: 16.31%
viability at 0.1111 µM [9]: 18.2%
Activity [10]: 54.12%
Activity [11]: inactive
Activity [12]: 69.11%
Activity [13]: 5.01%
viability at 1 µM [14]: 17.9%
Activity [15]: 18.97%
Activity [16]: 14.42%
Activity [17]: 48.79%
Activity [18]: Active
Activity [19]: 5.52%
Activity [20]: 7.7%
Activity [21]: 57.2%
Activity [22]: 73.05%
viability at 0.0123 µM [23]: 64.4%
Activity [24]: 14.84%
Activity [25]: 13.01%
Activity [26]: Time-dependent-effect
DC50 [27]: > 1000 nM
viability at 0.3333 µM [28]: 19.5%
Activity [29]: 12.48%
Emax [30]: 83.3%

Reference: ChEMBL document CHEMBL6115000, “Discovery of a first-in-class PROTAC degrader of histone lysine demethylase KDM4” (Eur J Med Chem, 2025)
